Six compounds from PubChem BioAssay (NCI) can be followed below.

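A five-concentration, 48-hour dose response in 96-well plates underlies each endpoint, interpolated linearly between surrounding concentrations. GI50 is the concentration that inhibits growth by half. TGI marks complete inhibition of growth.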

Some test systems named below: CAKI-1 renal; HCC-2998 colon; HOP-92 NSCLC; IGROV1 ovarian; LOX IMVI melanoma; NCI-H23 lung; PC-3 prostate; SK-MEL-5 melanoma; SW-620 colon; TK-10 renal.
Holding throughout (experiment): NCI-60 cell line screen, 48 h

On to `CC(=O)OCC1OC(O[C@@H]2C[C@H]3C(C)(C)[C@H](OC(C)=O)CC[C@]3(C)[C@H]3CCC4=C([C@@H](C)C[C@@H](O)[C@H](O)C(C)(C)O)CC[C@@]4(C)[C@@]32C)C(O)C(O)C1O` (stereo partly specified), for which the GI50 with CAKI-1 renal is 15.6 µM; in the experiment with HCC-2998 colon, 12 µM; in the experiment on HOP-92 NSCLC it was 14.6 µM; in the experiment with IGROV1 ovarian it was 16.3 µM; with LOX IMVI melanoma, 12.5 µM; in the experiment on NCI-H23 lung, 16.7 µM. Moreover, the figures for the GI50 in the experiment on PC-3 prostate, in the experiment on SK-MEL-5 melanoma and in the experiment on SW-620 colon were 14.5 µM, 16.2 µM and 16.8 µM, respectively. In addition, the TGI with CAKI-1 renal is 28.9 µM; in the experiment on HCC-2998 colon, 25.2 µM; in the experiment on HOP-92 NSCLC, 27.9 µM; with IGROV1 ovarian, 30.1 µM; with LOX IMVI melanoma it was 25 µM; in the experiment on NCI-H23 lung, 30.4 µM. The TGI in the experiment with PC-3 prostate stood at 27.9 µM; with SK-MEL-5 melanoma, 29.7 µM; with SW-620 colon, 30.7 µM.

Take `C=C1C(=O)O[C@H]2[C@H]1CC/C(CNC(=O)c1c[nH]c3ccc(F)cc13)=C\CC[C@@]1(C)O[C@@H]21`: the GI50 is 1.84 µM in the experiment with HCC-2998 colon; 1.54 µM with HOP-92 NSCLC; 1.63 µM with IGROV1 ovarian; 0.731 µM in the experiment with LOX IMVI melanoma; 1.68 µM with NCI-H23 lung; 2.91 µM in the experiment on PC-3 prostate. In addition, the results for the GI50 in the experiment with SK-MEL-5 melanoma and in the experiment on SW-620 colon were 2.25 µM and 0.639 µM, respectively. Also, the TGI with HCC-2998 colon was 3.44 µM; in the experiment with HOP-92 NSCLC, 4.17 µM; with IGROV1 ovarian it was 5.47 µM; in the experiment on LOX IMVI melanoma, 2.14 µM; in the experiment on NCI-H23 lung, 3.8 µM; in the experiment with PC-3 prostate, 12.1 µM. Moreover, the TGI was determined as 5.56 µM with SK-MEL-5 melanoma and 2.1 µM in the experiment with SW-620 colon.

As for `Cc1nn(-c2ccc(S(=O)(=O)[O-])cc2)c([O-])c1N=[N+](C)c1ccc(-c2ccc(N=Nc3ccc4c(S(=O)(=O)[O-])cc(S(=O)(=O)[O-])c(N)c4c3[O-])c([O-])c2)cc1[O-].[Cu+2].[Cu+2].[Na+]`, the GI50 in the experiment on CAKI-1 renal, in the experiment on HCC-2998 colon, with HOP-92 NSCLC, in the experiment with IGROV1 ovarian, in the experiment with NCI-H23 lung and in the experiment with PC-3 prostate was greater than 100 µM each time. Further, the GI50 with SK-MEL-5 melanoma, with SW-620 colon and in the experiment with TK-10 renal was greater than 100 µM each time. The TGI with CAKI-1 renal, with HCC-2998 colon, in the experiment on HOP-92 NSCLC, in the experiment on IGROV1 ovarian, with NCI-H23 lung and in the experiment on PC-3 prostate was greater than 100 µM in each case. Further, the TGI in the experiment with SK-MEL-5 melanoma, in the experiment with SW-620 colon and in the experiment on TK-10 renal was greater than 100 µM throughout.

For `Oc1ccccc1/C=N/Nc1ccc2ccccc2n1`, the GI50 was 2.98 µM with CAKI-1 renal; 6.59 µM in the experiment with HCC-2998 colon; 4.47 µM in the experiment with HOP-92 NSCLC; 3.18 µM in the experiment on IGROV1 ovarian; 3.36 µM with NCI-H23 lung; 4.5 µM in the experiment with PC-3 prostate. The GI50 with SK-MEL-5 melanoma is 4.12 µM; in the experiment with SW-620 colon, 4.64 µM; in the experiment with TK-10 renal, 7.69 µM. For the same compound, the TGI in the experiment on CAKI-1 renal is greater than 100 µM; in the experiment on HCC-2998 colon, greater than 100 µM; in the experiment on HOP-92 NSCLC, 42.5 µM; with IGROV1 ovarian, 12.3 µM; in the experiment with NCI-H23 lung, greater than 100 µM; in the experiment with PC-3 prostate, greater than 100 µM. Besides, the TGI in the experiment with SK-MEL-5 melanoma was greater than 100 µM; in the experiment on SW-620 colon, greater than 100 µM; in the experiment on TK-10 renal, 77.5 µM.

In the case of `CCCCCCCCCCCCCC(=S)NCCCC[C@H](NC(=O)OCc1ccccc1)C(=O)Nc1ccccc1`, the GI50 is 5.69 µM in the experiment on HCC-2998 colon; 2.3 µM in the experiment with HOP-92 NSCLC; 5.87 µM with IGROV1 ovarian; 5.3 µM in the experiment with LOX IMVI melanoma; 4.14 µM in the experiment on NCI-H23 lung; 2.58 µM in the experiment on PC-3 prostate. Moreover, the GI50 in the experiment with SK-MEL-5 melanoma is 8.39 µM; with SW-620 colon, 4.12 µM; in the experiment on TK-10 renal it was 4.4 µM. Further, the TGI was greater than 100 µM with HCC-2998 colon; 8.25 µM in the experiment on HOP-92 NSCLC; greater than 100 µM with IGROV1 ovarian; greater than 100 µM in the experiment on LOX IMVI melanoma; greater than 100 µM in the experiment on NCI-H23 lung; greater than 100 µM in the experiment with PC-3 prostate. Besides, the TGI in the experiment on SK-MEL-5 melanoma, in the experiment on SW-620 colon and in the experiment with TK-10 renal was greater than 100 µM throughout.

For `COc1ccc(-c2cc(-c3cc(Cl)ccc3Cl)nc3[nH]c(-c4cc(F)c(Cl)cc4Cl)cc(=O)c23)cc1`, the GI50 in the experiment on CAKI-1 renal is 34.1 µM; in the experiment with HCC-2998 colon, 15.1 µM; with HOP-92 NSCLC it was 35.3 µM; with IGROV1 ovarian, 16.5 µM; in the experiment on LOX IMVI melanoma, 15.3 µM; with NCI-H23 lung it was 14.7 µM. Further, the GI50 is 39.3 µM in the experiment on PC-3 prostate, 7.63 µM in the experiment on SK-MEL-5 melanoma and 20 µM with SW-620 colon. Also, the TGI in the experiment on CAKI-1 renal is greater than 100 µM; in the experiment on HCC-2998 colon, 32.3 µM; in the experiment with HOP-92 NSCLC, greater than 100 µM; with IGROV1 ovarian, greater than 100 µM; in the experiment on LOX IMVI melanoma it was 34.4 µM; in the experiment on NCI-H23 lung, 55.8 µM. For the same compound, the values for the TGI with PC-3 prostate, with SK-MEL-5 melanoma and with SW-620 colon were greater than 100 µM, 33.4 µM and greater than 100 µM, respectively.
